Experimental data from ChEMBL document CHEMBL1132040, “Bioreductively-activated prodrugs for targeting hypoxic tissues: elimination of aspirin from 2-nitroimidazole derivatives” (Bioorg Med Chem Lett, 1999).

Columns and labels:
Assay type in all cases: ADME
[1] = Reductive elimination of leaving group was determined at pH 7.4; expressed as loss of parent
[2] = Half life period at pH 7.4 was determined
[3] = Half life period at pH 9.1 was determined

| Activity [1] | T1/2 [3] | SMILES | T1/2 [2] |
| --- | --- | --- | --- |
| 0.21 µM/J | ~ 250 ms | Cn1c(COC(=O)c2ccccc2O)cnc1[N+](=O)[O-] | ~ 70 ms |
| 0.19 µM/J | ~ 30 ms | CC(=O)Oc1ccccc1C(=O)OCc1cnc([N+](=O)[O-])n1C |  |

| SMILES | Activity [1] | T1/2 [3] | T1/2 [2] |
| --- | --- | --- | --- |
| Cn1c(CBr)cnc1[N+](=O)[O-] | 0.68 µM/J |  | ~ 0.3 ms |
